The test system of data set [1] is human umbilical vein endothelial cells (HUVEC). Briefly: ALAMAR BLUE cell viability assay. The data set is classed as cell-based. The conditions noted are these: 24 hours. On the procedure: (§1) Bovine aortic endothelial cells (BAEC), human umbilical vein endothelial cells (HUVEC), fibroblast cells, A549 human lung carcinoma cells (A549), MDA-MB231 human breast carcinoma cells (MB231), MCF7 human breast carcinoma cells (MCF7) were treated with 37 μg/ml of receptor, or buffer alone, for 24 hours. Viability of the cells was measured using the ALAMAR BLUE™ assay, which measures the capacity of cells to metabolize the ALAMAR BLUE™ dye. The ALAMAR BLUE™ assay (available from Biosource International, Camarillo, Calif.) quantitatively measures the proliferation of cell lines and can establish the relative cytotoxicity of chemical agents. The assay incorporates a fluorometric/colorimetric growth indicator based on detection of metabolic activity. The system incorporates an oxidation-reduction (redox) indicator that both fluoresces and changes color in response to chemical reduction of growth medium resulting from cell growth. This causes the redox indicator to change from its oxidized, non-fluorescent, blue form to its reduced, fluorescent, red form. Data can be collected using either fluorescence-based instrumentation (530-560 nm excitation wavelength and 590 nm emission wavelength) or absorbance-based instrumentation (570 nm and 600 nm).
Similarly, the effect of receptor on viability of BAEC cells was compared to mouse Lewis lung carcinoma cells, using the same method.
The effect of angiocidin on HUVEC cell viability was evaluated, and FGF and TSP-1 were added to determine whether they ameliorated the angiocidin effect on cell viability. FGF (Fibroblast Growth Factor) is an endothelial cell mitogen, which promotes cell growth. […] TSP-1 was expected to reverse the inhibition of angiocidin; however, quantities added may have been insufficient to provide the correct molar ratio.
A general note: Alamar Blue is a resazurin reagent that responds to reducing activity.

Data set [2] relates to MDA-MB-435 Breast Carcinoma Cells. The experiment in a line: Cell adhesion to immobilized recombinant receptor. The data set is classed as cell-based. How it is done: For the adhesion assay, in a 96 well plate, duplicate wells were covered with either TSP-1 (40 μg/ml), fibronectin (40 μg/ml), or and 1% bovine serum albumin (BSA). The wells were dried out overnight and then blocked with BSA. 100 μl of a suspension containing 2×10^5 cells were plated in the protein covered wells and incubated at 37^□ C. for 20 minutes to 1 hour. The non-adherent cells were removed and the wells were washed with a Hepes buffer. The adherent cells were fixed with 2.5% glutaraldehyde for 10 minutes and stained with 0.2% Giemsa. The stain was washed off and the cells were counted in a field of 1 mm square. Cells adhering to BSA were considered background while cells adhering to fibronectin were the positive control.
The method of Example 12 was followed except the whole receptor protein was immobilized on the plates, and cells transfected with either TSP-1 cDNA or a vector control were applied to the plates. The cells, which naturally express a low level of TSP-1, were transfected to over express the protein. […] Fibronectin and BSA were used as positive and negative controls, respectively, for cell adhesion. This evidence bolsters the theory that the receptor of the present invention binds to thrombospondin.
This specific interaction was confirmed by adding anti-TSP-1 antibodies, Anti-Cys-Ser-Val-Cys-Thr-Gly (SEQ ID NO: 1), and control IgG to the system.

Data set [3] concerns Bovine Smooth Muscle Cells (BSM). The experiment in a line: ALAMAR BLUE cell viability assay. The settings on record: 0 to 37 μg/ml, 24 hours. The data set is classed as cell-based. On the procedure: as §1, with “This causes the redox indicator to change from its oxidized, non-fluorescent, blue form to its reduced, fluorescent, red form.” left out
BAEC and BSM cells were treated with increasing concentrations of angiocidin (0, 0.625, 1.25, 2.5, 5, 15, 26 and 37 μg/ml) for 24 hours. Cell viability was measured using the ALAMAR BLUE Tm assay. […]

For data set [4], the system named is Bovine aortic endothelial cells (BAEC). Briefly: Morphology of BAEC monolayer cultures. The settings on record: 0.37, 3.7, 37 μg/ml, 24 hours, serum-free medium with 1% BSA. The data set is classed as cell-based. On the procedure: In this experiment, BAEC cells in monolayer cultures were plated for 24 hours in serum-free medium containing 1% BSA in the presence of increasing concentrations of angiocidin (control=none, 0.37 μg/ml, 3.7 μg/ml, 37 μg/ml). Hoffman interference microscopy (100×) was used to photograph the cells.

Data set [5] has the same test system. Briefly: Microvessel stability in collagen matrix. The data set is classed as cell-based. The settings on record: added after 24 hours of microvessel formation, read after additional 24 hours. On the procedure: An experiment was performed to evaluate the effect of angiocidin on angiogenesis. Bovine aortic endothelial cells (BAEC) were plated on a collagen matrix. Next, the cells were over-layered with collagen. Angiocidin (37 μg/ml) was added on top of the cells in the treatment plate, and the control plate only received buffer. After 24 hours, phase contrast photomicrographs (200×) were taken. In the control plate, the BAEC cells rearranged themselves into a network of microvessels. […] The experiment in this example was performed as in Example 16, however, no treatment was given to the cells initially. After 24 hours, microvessels formed in both samples, and looked similar to the control plate in FIG. 19. Buffer and angiocidin were then added to the control and treatment plates, respectively. After an additional 24 hours, Hoffman interference photomicrographs were taken. Here, the control was not affected.

Data set [6] has as its system fibroblast cells. The experiment in a line: ALAMAR BLUE cell viability assay. The data set is classed as cell-based. The settings on record: 37 μg/ml, 24 hours. On the procedure:
as §1

The subject of data set [7] is A549 human lung carcinoma cells (A549). Briefly: ALAMAR BLUE cell viability assay. Type of data set: cell-based. The conditions noted are these: 37 μg/ml, 24 hours. On the procedure: as §1
Data set [8] has as its system MCF7 human breast carcinoma cells (MCF7). Briefly: ALAMAR BLUE cell viability assay. The data set is classed as cell-based. The conditions noted are these: 37 μg/ml, 24 hours. How it is done:
as §1

For data set [9], the system named is MDA-MB231 human breast carcinoma cells (MB231). Briefly: ALAMAR BLUE cell viability assay. Type of data set: cell-based. The conditions noted are these: 37 μg/ml, 24 hours. On the procedure: as §1
Data set [10] relates to Lewis lung carcinoma. Briefly: Growth of Lewis lung carcinoma flank tumors. The settings on record: 50 μg IV on days 1, 3, 5. The data set is classed as in vivo, mice. The source says: Ten animals were subcutaneously injected in the flank with […] Lewis lung carcinoma cells. Evaluation of flank tumors is a well recognized model for angiogenesis, because flank tumors are highly dependent on angiogenesis. O'Reilly, M. S., Angiostatin: A Novel Angiogenesis Inhibitor that Mediates the Suppression of Metastasis by a Lewis Lung Carcinoma, Cell 79: 315-28 (1994). After 9 days when a palpable tumor developed, mice were divided into two groups of 5 animals per group. One group of 5 mice were treated with an IV injection of 50 μg of angiocidin in Hepes buffered saline. The control group was treated with Hepes buffered saline. Mice were treated on days 1, 3, and 5 after the groups were divided, and sacrificed on day 7.
The tumors were embedded in paraffin and cut into 5 micron sections. The sections were stained with hemotoxylin and eosin. Hemotoxylin stains DNA blue, and eosin stains protein pink. FIG. 36 illustrates the difference between control (panels A and C) and angiocidin (panels B and D) treated cells. Panels A and B are at a magnification of 400×under a light microscope and panels C and D are at a magnification of 200×under a light microscope.

As to “angiocidin: Cys-Ser-Val-Thr-Cys-Gly (SEQ ID NO: 1)-specific thrombospondin (TSP-1) receptor protein; recombinant form of SEQ ID NO: 2 used in the Examples”, the cell viability result in data set [1] (0 to 37 μg/ml) is reported as “decreasing their viability”; in data set [3], “unaffected”; in data set [6], “No significant difference”; in data set [7], “No significant difference”; in [8], “No significant difference”; in data set [9], “No significant difference”. The “decrease of cell viability” value in [1] (37 μg/ml) was 70-80%. Besides, the “inhibition of cell adhesion to receptor bound to the plate by unbound receptor” value in [2] (nontransfected, naturally TSP-1 expressing cells, FIG. 17) is listed as “reduced the adhesion of the cells to the plate”. In addition, the “adhesion of TSP-1 cDNA transfected cells to plates with receptor protein relative to control cell line” value in [2] (p<0.001) worked out at 2.5 times. Moreover, the cell morphology entry in [4] was “elongated, detached from the plate, aggregated, and died”. Moreover, the “stability of formed microvessels” value in [5] is reported as “disrupted the microvessels that had already formed”. The “tumor histology (hemotoxylin and eosin)” value in data set [10] is “significant necrosis and cell death”. In addition, the “tumor growth (relative tumor volumes)” value in data set [10] (7 day treatment period) was “grew only slightly and at a linear rate”. Also, the flank tumor size result in [10] (sacrificed day 7) was “much smaller than the control mice”.
